In patent publication EP4541797A1, “CAMPTOTHECIN DERIVATIVE, METHOD FOR PREPARING SAME, AND USE THEREOF” (Hangzhou Adcoris Biopharma Co., Ltd, priority 2022, dated 2024) one finds IC50 data, which are given here for 6 molecules.

Holding throughout (format): cell-based
One experiment concerns SK-BR-3 cells. The experiment can be described thus: Inhibitory activity on cancer cell growth (CCK-8, 72 h), SK-BR-3 cells. The settings on record: Homo sapiens, SK-BR-3, 72 h, human breast adenocarcinoma cells SK-BR-3, 72 h incubation. As for the experimental part:
(§1) Human esophageal cancer cells OE33, human breast adenocarcinoma cells SK-BR-3 and human gastric cancer cells NCI-N87 were cultured in RPMI1640 (Cellmax) supplemented with 10% fetal bovine serum (Cellmax) respectively. Cells in the exponential growth phase were diluted to a concentration of 1×10^5cells/mL by culture medium and added to 96-well cell culture plates at 100µL per well, then incubated overnight in a 37°C incubator with 5% CO2. On the following day, the test compounds and control compounds were diluted to concentrations of 10000 nM, 2000 nM, 400 nM, 80 nM, 16 nM, 3.2 nM, 0.64 nM, and 0.13 nM by culture medium and added to the 96-well cell culture plates at 2µL per well, with three replicate wells for each concentration. Negative control and blank control groups without the addition of compounds were supplemented with 2µL of the dilution liquid per well. After the addition of the compounds, the plates were returned to the 37°C incubator with 5% CO2 to continue incubation for 72 h. After incubation, the cell culture plates were removed, and the culture medium was aspirated using a pipette. Then, 100µL of culture medium containing 10% CCK-8 was added to each well, and the plates were incubated at 37°C for 3 h. After incubation, the plates were removed, kept in the dark, and placed in ELISA plate. Absorbance was measured at 630nm as the reference wavelength and 450nm as the test wavelength. The IC50 values (Tables 1-3) were calculated using the four-parameter logistic regression method in GraphPad, based on the absorbance values. SN38 (7-ethyl-10-hydroxycamptothecin) and 10CPT (10-hydroxycamptothecin) were used as control compounds. For the IC50 values, wherein "++++" indicates an IC50 < 50 nM; "+++" indicates an IC50 between 50 nM and 100 nM; "++" indicates an IC50 between 100 nM and 500 nM; and "+" indicates an IC50 > 500 nM. Table 1: Inhibitory activity of compounds to inhibit the growth of OE33 cells

A further experiment relates to OE33 cells. The experiment can be described thus: Inhibitory activity on cancer cell growth (CCK-8, 72 h), OE33 cells. Conditions: Homo sapiens, OE33, 72 h, human esophageal cancer cells OE33, 72 h incubation. The procedure: as §1
A further experiment deals with NCI-N87 cells. The experiment can be described thus: Inhibitory activity on cancer cell growth (CCK-8, 72 h), NCI-N87 cells. The settings on record: Homo sapiens, NCI-N87, 72 h, human gastric cancer cells NCI-N87, 72 h incubation. As for the experimental part: as §1
The mark [1] stands for this setting: numeric value or bound, read-out: IC50.

pIC50: −log10 of the molar value. Like-named read-outs stand apart in the source and are kept apart here. Bounds are passed on as bounds.

Turning to `CCN(C)Cc1c(O)ccc2nc3c(cc12)Cn1c-3cc2c(c1=O)COC(=O)[C@]2(O)CC` [Compound 19, 9-(N-methylethylamine)methyl-10-hydroxycamptothecin], the pIC50 is 7.00 to 7.30 in the experiment with SK-BR-3 cells; greater than 7.00 in the experiment with SK-BR-3 cells (bound stated); 7.00 to 7.30 with OE33 cells; greater than 7.00 in the experiment on OE33 cells (numeric value or bound); greater than 7.30 with NCI-N87 cells; greater than 7.00 with NCI-N87 cells (bound stated).
With `CC[C@@]1(O)C(=O)OCc2c1cc1n(c2=O)Cc2cc3c(CN(C)C4CC4)c(O)ccc3nc2-1` [Compound 17, 9-(N-methyl-N-cyclopropylamine)methyl-10-hydroxycamptothecin], the negative-log IC50 (pIC50) with SK-BR-3 cells (bound stated, read-out: IC50) was greater than 7.00; with SK-BR-3 cells (read-out: IC50) it was 7.00 to 7.30; in the experiment on OE33 cells (setting [1]), greater than 7.00; in the experiment with OE33 cells (read-out: IC50), 7.00 to 7.30; with NCI-N87 cells (bound stated, read-out: IC50), greater than 7.00; in the experiment with NCI-N87 cells (read-out: IC50), greater than 7.30.
Turning to `CC[C@@]1(O)C(=O)OCc2c1cc1n(c2=O)Cc2cc3cc(O)ccc3nc2-1` [Compound 10CPT, 10-hydroxycamptothecin, reference compound], the pIC50 in the experiment on SK-BR-3 cells and with OE33 cells was greater than 7.30 each time.
`CC[C@@]1(O)C(=O)OCc2c1cc1n(c2=O)Cc2cc3c(CN4CCN(C(=O)OC)CC4)c(O)ccc3nc2-1` [Compound 9, 9-(1-(4-methoxycarbonylpiperazine))methyl-10-hydroxycamptothecin]: the values for the pIC50 with SK-BR-3 cells (read-out: IC50), in the experiment with OE33 cells (read-out: IC50) and in the experiment with NCI-N87 cells (read-out: IC50) were 7.00 to 7.30, 6.30 to 7.00 and greater than 7.30, respectively.
In the case of `CC[C@@]1(O)C(=O)OCc2c1cc1n(c2=O)Cc2cc3c(CN(C)C(C)C)c(O)ccc3nc2-1` [Compound 10, 9-(N-methyl-N-isopropylamino)methyl-10-hydroxycamptothecin], the pIC50 with SK-BR-3 cells (bound stated, read-out: IC50) was greater than 7.00; with SK-BR-3 cells (read-out: IC50), 7.00 to 7.30; in the experiment on OE33 cells (setting [1]) it was greater than 7.00; with OE33 cells (read-out: IC50), 7.00 to 7.30; in the experiment with NCI-N87 cells (bound stated, read-out: IC50) it was greater than 7.00; in the experiment with NCI-N87 cells (read-out: IC50), greater than 7.30.
As to `CC[C@@]1(O)C(=O)OCc2c1cc1n(c2=O)Cc2cc3c(CNC(C)C)c(O)ccc3nc2-1` [Compound 21, 9-(isopropylamine)methyl-10-hydroxycamptothecin], the negative-log IC50 (pIC50) with SK-BR-3 cells (read-out: IC50) and with OE33 cells (read-out: IC50) was 6.30 to 7.00 throughout.
